Results published in PubChem BioAssay AID330 (DTP/NCI, 2004).
“And” between values parts separate entries of the source, which are not always exact repeats. Identical values can stand only once. Inconclusive results and toxic doses are left out.

Tested on: P388 leukemia ip, CD2F1 mice, survival T/C
Test: NCI In Vivo Anticancer Drug Screen. Data for tumor model P388 Leukemia (intraperitoneal) in CD2F1 (CDF1) mice
Settings: endpoint: median survival time, higher = longer survival
In short: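 Mice carrying the transplanted tumor received test compound or vehicle. Survival was recorded in each group, and the value is the treated-group measurement divided by that of the vehicle-treated control group.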

[1] = dose: 50.0 mg/kg/injection, schedule: Q01DX005 (ip), vehicle: Klucel (hydroxypropylcellulose) (HPC)
[2] = dose: 100.0 mg/kg/injection, schedule: Q01DX005 (ip), vehicle: Klucel (hydroxypropylcellulose) (HPC)
[3] = dose: 200.0 mg/kg/injection, schedule: Q01DX005 (ip), vehicle: Klucel (hydroxypropylcellulose) (HPC)
[4] = dose: 60.0 mg/kg/injection, schedule: Q01DX005 (ip), vehicle: saline
[5] = dose: 120.0 mg/kg/injection, schedule: Q01DX005 (ip), vehicle: saline
[6] = dose: 100.0 mg/kg/injection, schedule: Q01DX001 (ip), vehicle: Klucel (hydroxypropylcellulose) (HPC)
[7] = dose: 200.0 mg/kg/injection, schedule: Q01DX001 (ip), vehicle: Klucel (hydroxypropylcellulose) (HPC)
[8] = dose: 400.0 mg/kg/injection, schedule: Q01DX001 (ip), vehicle: Klucel (hydroxypropylcellulose) (HPC)

## CCOC1(C)OC2OC(COC(c3ccccc3)(c3ccccc3)c3ccccc3)C(O)C(O)C2O1 (configuration not stated)
dose: 12.5 mg/kg/injection, schedule: Q01DX009 (ip), vehicle: other
  T/C: 97 % of control
dose: 25.0 mg/kg/injection, schedule: Q01DX009 (ip), vehicle: other
  T/C: 97 % of control
dose: 50.0 mg/kg/injection, schedule: Q01DX009 (ip), vehicle: other
  T/C: 95 % of control
dose: 100.0 mg/kg/injection, schedule: Q01DX009 (ip), vehicle: other
  T/C: 98 % of control
dose: 200.0 mg/kg/injection, schedule: Q01DX009 (ip), vehicle: other
  T/C: 98 % of control

## O=[N+]([O-])CC(c1ccccc1)C(c1ccccc1)[N+](=O)[O-] (configuration not stated)
dose: 50.0 mg/kg/injection, schedule: Q01DX005 (ip), vehicle: saline with Tween-80
  T/C: 90 % of control
dose: 100.0 mg/kg/injection, schedule: Q01DX005 (ip), vehicle: saline with Tween-80
  T/C: 93 % of control
dose: 200.0 mg/kg/injection, schedule: Q01DX005 (ip), vehicle: saline with Tween-80
  T/C: 112 % of control

## CC[C@@]1(O)C[C@H](OC2CC(N(C)C)C(OC3CC(O)C(OC4CCC(=O)C(C)O4)C(C)O3)C(C)O2)c2c(cc3c(c2O)C(=O)c2c(O)ccc(O)c2C3=O)[C@H]1C(=O)OC (some centres not stated)
dose: 1.56 mg/kg/injection, schedule: Q04DX003 (ip), vehicle: saline
  T/C: 116 % of control
dose: 2.0 mg/kg/injection, schedule: Q04DX003 (ip), vehicle: saline with Tween-80
  T/C: 154 % of control and 161 % of control
dose: 2.59 mg/kg/injection, schedule: Q04DX003 (ip), vehicle: water
  T/C: 160 % of control
dose: 4.32 mg/kg/injection, schedule: Q04DX003 (ip), vehicle: saline
  T/C: 152 % of control and 153 % of control and 160 % of control
dose: 4.32 mg/kg/injection, schedule: Q04DX003 (ip), vehicle: water
  T/C: 151 % of control and 169 % of control
dose: 7.2 mg/kg/injection, schedule: Q04DX003 (ip), vehicle: saline
  T/C: 164 % of control and 180 % of control
dose: 8.0 mg/kg/injection, schedule: Q04DX003 (ip), vehicle: saline with Tween-80
  T/C: 94 % of control and 98 % of control
dose: 12.0 mg/kg/injection, schedule: Q04DX003 (ip), vehicle: saline
  T/C: 103 % of control
dose: 12.0 mg/kg/injection, schedule: Q04DX003 (ip), vehicle: water
  T/C: 92 % of control

## O=P(N1CCCCC1)(N1CC1)N1CC1
dose: 5.0 mg/kg/injection, schedule: Q04DX003 (ip), vehicle: saline
  T/C: 108 % of control
dose: 5.56 mg/kg/injection, schedule: Q01DX009 (ip), vehicle: saline
  T/C: 195 % of control
dose: 6.25 mg/kg/injection, schedule: Q01DX009 (ip), vehicle: saline
  T/C: 163 % of control
dose: 10.0 mg/kg/injection, schedule: Q04DX003 (ip), vehicle: saline
  T/C: 120 % of control
dose: 12.5 mg/kg/injection, schedule: Q01DX009 (ip), vehicle: saline
  T/C: 227 % of control and 86 % of control
dose: 20.0 mg/kg/injection, schedule: Q04DX003 (ip), vehicle: saline
  T/C: 220 % of control
dose: 25.0 mg/kg/injection, schedule: Q01DX009 (ip), vehicle: saline
  T/C: 90 % of control

## Cc1ccc(N=C(c2ccccc2)N(O)c2ccc(Cl)cc2)cc1Cl
[1]
  T/C: 100 % of control
[2]
  T/C: 97 % of control
[3]
  T/C: 94 % of control

## Cc1nn(CCO)c(C)c1N=[N+]([O-])c1c(C)nn(CCO)c1C
dose: 10.0 mg/kg/injection, schedule: Q01DX009 (ip), vehicle: suspension in saline
  T/C: 114 % of control
dose: 20.0 mg/kg/injection, schedule: Q01DX009 (ip), vehicle: suspension in saline
  T/C: 120 % of control
dose: 25.0 mg/kg/injection, schedule: Q04DX003 (ip), vehicle: Klucel (hydroxypropylcellulose) (HPC)
  T/C: 111 % of control and 116 % of control
dose: 30.0 mg/kg/injection, schedule: Q01DX009 (ip), vehicle: suspension in saline
  T/C: 116 % of control
dose: 50.0 mg/kg/injection, schedule: Q04DX003 (ip), vehicle: Klucel (hydroxypropylcellulose) (HPC)
  T/C: 115 % of control and 122 % of control
dose: 60.0 mg/kg/injection, schedule: Q01DX009 (ip), vehicle: suspension in saline
  T/C: 120 % of control
dose: 100.0 mg/kg/injection, schedule: Q04DX003 (ip), vehicle: Klucel (hydroxypropylcellulose) (HPC)
  T/C: 114 % of control and 96 % of control

## COc1ccc(C2OC3=C(Nc4ccc([N+](=O)[O-])cc4N3)C2=O)cc1 (configuration not stated)
dose: 0.93 mg/kg/injection, schedule: Q01DX005 (ip), vehicle: Klucel (hydroxypropylcellulose) (HPC)
  T/C: 89 % of control
dose: 1.87 mg/kg/injection, schedule: Q01DX005 (ip), vehicle: Klucel (hydroxypropylcellulose) (HPC)
  T/C: 93 % of control
dose: 3.75 mg/kg/injection, schedule: Q01DX005 (ip), vehicle: Klucel (hydroxypropylcellulose) (HPC)
  T/C: 92 % of control

## C[C@]12CC[C@H](O)C[C@@]1(O)CC[C@@H]1[C@@H]2CC[C@]2(C)[C@@H](c3ccc(=O)oc3)C[C@H]3O[C@]132
dose: 1.25 mg/kg/injection, schedule: Q01DX005 (ip), vehicle: saline + alcohol
  T/C: 107 % of control
dose: 2.5 mg/kg/injection, schedule: Q01DX005 (ip), vehicle: saline + alcohol
  T/C: 104 % of control
dose: 5.0 mg/kg/injection, schedule: Q01DX005 (ip), vehicle: saline + alcohol
  T/C: 116 % of control
dose: 10.0 mg/kg/injection, schedule: Q01DX005 (ip), vehicle: saline + alcohol
  T/C: 94 % of control

## COc1cccc2c1S(=O)(=O)C(c1ccccc1)=CC2=O
dose: 60.0 mg/kg/injection, schedule: Q01DX005 (ip), vehicle: Klucel (hydroxypropylcellulose) (HPC)
  T/C: 105 % of control
dose: 120.0 mg/kg/injection, schedule: Q01DX005 (ip), vehicle: Klucel (hydroxypropylcellulose) (HPC)
  T/C: 105 % of control
dose: 240.0 mg/kg/injection, schedule: Q01DX005 (ip), vehicle: Klucel (hydroxypropylcellulose) (HPC)
  T/C: 120 % of control

## N#Cc1c(-c2ccccc2Cl)c(-c2ccccc2Cl)nn(CCO)c1=O
dose: 25.0 mg/kg/injection, schedule: Q04DX002 (ip), vehicle: distilled water + Tween-80
  T/C: 99 % of control
dose: 50.0 mg/kg/injection, schedule: Q04DX002 (ip), vehicle: distilled water + Tween-80
  T/C: 100 % of control
dose: 100.0 mg/kg/injection, schedule: Q04DX002 (ip), vehicle: distilled water + Tween-80
  T/C: 91 % of control
dose: 200.0 mg/kg/injection, schedule: Q04DX002 (ip), vehicle: distilled water + Tween-80
  T/C: 101 % of control

## COC(=O)C1(C2CCc3cc(OC)ccc3C2=O)NC(=S)NC(=O)C1C#N (configuration not stated)
dose: 7.5 mg/kg/injection, schedule: Q01DX005 (ip), vehicle: saline with Tween-80
  T/C: 96 % of control
dose: 15.0 mg/kg/injection, schedule: Q01DX005 (ip), vehicle: saline with Tween-80
  T/C: 97 % of control
dose: 30.0 mg/kg/injection, schedule: Q01DX005 (ip), vehicle: saline with Tween-80
  T/C: 93 % of control

## Nc1ncnc2c1ncn2C1OC(CO)C(O)C1N (configuration not stated)
dose: 50.0 mg/kg/injection, schedule: Q04DX002 (ip), vehicle: saline
  T/C: 106 % of control
dose: 100.0 mg/kg/injection, schedule: Q04DX002 (ip), vehicle: saline
  T/C: 110 % of control
dose: 200.0 mg/kg/injection, schedule: Q04DX002 (ip), vehicle: saline
  T/C: 112 % of control

## O=c1c2cc3c(=O)n(CO)c(=O)c3cc2c(=O)n1CO
dose: 60.0 mg/kg/injection, schedule: Q01DX005 (ip), vehicle: saline with Tween-80
  T/C: 118 % of control
dose: 120.0 mg/kg/injection, schedule: Q01DX005 (ip), vehicle: saline with Tween-80
  T/C: 120 % of control
dose: 240.0 mg/kg/injection, schedule: Q01DX005 (ip), vehicle: saline with Tween-80
  T/C: 121 % of control

## c1ccc(-c2ccc[n+](C[n+]3cccc(-c4ccccn4)c3)c2)nc1
[4]
  T/C: 109 % of control
[5]
  T/C: 104 % of control
dose: 240.0 mg/kg/injection, schedule: Q01DX005 (ip), vehicle: saline
  T/C: 106 % of control

## Cc1nc2ncn(-c3ccccc3)c2c(=O)n1-c1ccccc1
[1]
  T/C: 100 % of control
[2]
  T/C: 100 % of control
[3]
  T/C: 100 % of control

## CN1N=Nc2ccccc2C1(O)c1ccccc1 (configuration not stated)
[6]
  T/C: 98 % of control
[7]
  T/C: 98 % of control
[8]
  T/C: 102 % of control

## COC(=O)c1cc(-c2ccccc2)[nH]c(=O)c1C#N
[4]
  T/C: 100 % of control
[5]
  T/C: 100 % of control

## Cc1ccc(S(=O)(=O)N/N=C2/C=CC3(CCCC3)CC2)cc1
dose: 50.0 mg/kg/injection, schedule: Q01DX001 (ip), vehicle: Klucel (hydroxypropylcellulose) (HPC)
  T/C: 88 % of control
[6]
  T/C: 91 % of control
[7]
  T/C: 88 % of control and 90 % of control
[8]
  T/C: 89 % of control
